Test results from publication PMC7090077, “Developing a highly efficient hydroxytyrosol whole-cell catalyst by de-bottlenecking rate-limiting steps” (Nature Communications, 2020).
One block for each compound: values may come before it.

What was measured:
[1] = biological target: T1, HpaBC (Escherichia coli, UniProt Q57160); experiment: specific activity, product formation by HPLC; type: biochemical; details: wild-type
T1 construct: gene hpaB; HpaB and HpaC purified on Ni-NTA; two-component flavin-dependent monooxygenase; with 4-hydroxyphenylacetate 3-monooxygenase reductase component
T1 sequence (Q57160 1-520): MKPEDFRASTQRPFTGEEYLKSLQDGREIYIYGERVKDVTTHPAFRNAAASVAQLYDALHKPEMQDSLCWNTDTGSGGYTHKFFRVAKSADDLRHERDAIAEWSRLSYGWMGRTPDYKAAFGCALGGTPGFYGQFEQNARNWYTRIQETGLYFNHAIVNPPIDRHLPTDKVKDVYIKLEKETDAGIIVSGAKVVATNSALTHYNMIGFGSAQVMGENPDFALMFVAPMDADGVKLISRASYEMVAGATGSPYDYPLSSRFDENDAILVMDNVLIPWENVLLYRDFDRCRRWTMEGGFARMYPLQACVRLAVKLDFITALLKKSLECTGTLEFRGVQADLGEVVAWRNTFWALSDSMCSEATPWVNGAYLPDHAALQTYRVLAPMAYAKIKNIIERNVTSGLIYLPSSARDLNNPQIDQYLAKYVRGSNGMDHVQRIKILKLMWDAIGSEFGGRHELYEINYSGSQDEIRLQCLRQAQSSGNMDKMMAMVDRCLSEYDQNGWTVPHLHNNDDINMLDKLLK

[2] = biological target: T2, VanR (Corynebacterium glutamicum, UniProt Q8NN31, R148L/Y103L/Y168M); experiment: RFP reporter induction in E. coli BW25113 with plasmid pVanR; type: cell-based
T2 construct: gene Cgl2382; full length; GST fusion from pGEX-6p-1 in E. coli BL21(DE3), GST tag cleaved with PreScission protease; homodimer, ligand pocket at subunit interface
T2 sequence (Q8NN31 entry or part of it Y103L/R148L/Y168M): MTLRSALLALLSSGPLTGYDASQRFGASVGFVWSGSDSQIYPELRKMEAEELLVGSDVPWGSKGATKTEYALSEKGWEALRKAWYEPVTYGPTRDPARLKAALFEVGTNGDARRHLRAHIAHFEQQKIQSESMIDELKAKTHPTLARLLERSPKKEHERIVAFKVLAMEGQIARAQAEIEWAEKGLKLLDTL

[3] = biological target: T3, VanR (Corynebacterium glutamicum, UniProt Q8NN31); experiment: isothermal titration calorimetry; type: binding
T3 construct: gene Cgl2382; full length; GST fusion from pGEX-6p-1 in E. coli BL21(DE3), GST tag cleaved with PreScission protease; homodimer, ligand pocket at subunit interface
T3 sequence (Q8NN31 entry or part of it): as the sequence (Q8NN31 entry or part of it Y103L/R148L/Y168M) above, with L103Y, L148R, M168Y counted along it

Compound: O=C(O)Cc1ccc(O)cc1 [4-hydroxyphenylacetate]
specific activity [1]: the hydroxylation activity of these HpaBC mutants on the original substrate 4-HPA reduced considerably

EC50 [2]: ~500 µM
Compound: OCCc1ccc(O)c(O)c1 [hydroxytyrosol]

Kd [3]: 6.99 µM
Compound: COc1cc(C(=O)O)ccc1O [vanillic acid]
